Reference: ChEMBL document CHEMBL1201862, “PubChem BioAssay data set” (2004)
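1) Cells in 96-well plates. 2) Compound, 48 h, 5 concentrations. 3) Linear interpolation between surrounding doses. 4) Unreached endpoint = highest concentration. GI50: concentration for 50% inhibition of growth.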 Activity calls are given as the source filed them. No stated cut-off is given here; in the data, active = GI50 up to about 1.1 µM and inactive = higher.

How the values were obtained:
Test in all cases: NCI-60 cell line screen, 48 h
[1] = tested on: HOP-92
[2] = tested on: HCT-116
[3] = tested on: RXF 393
[4] = tested on: SNB-75
[5] = tested on: NCI-H226
[6] = tested on: DMS-273
[7] = tested on: UACC-257
[8] = tested on: SN12C
[9] = tested on: SK-MEL-28
[10] = tested on: COLO 205
[11] = tested on: IGROV-1
[12] = tested on: SR
[13] = tested on: NCI-H460
[14] = tested on: TK-10
[15] = tested on: MOLT-4
[16] = tested on: EKVX
[17] = tested on: HCC 2998
[18] = tested on: HCT-15
[19] = tested on: SF-539
[20] = tested on: Malme-3M
[21] = tested on: SNB-78
[22] = tested on: SK-OV-3
[23] = tested on: OVCAR-3
[24] = tested on: LOX IMVI
[25] = tested on: SNB-19
[26] = tested on: M19-MEL
[27] = tested on: OVCAR-5
[28] = tested on: 786-0
[29] = tested on: SF-268
[30] = tested on: SK-MEL-2
[31] = tested on: XF498
[32] = tested on: SF-295
[33] = tested on: ACHN
[34] = tested on: HOP-62
[35] = tested on: A549
[36] = tested on: UACC-62
[37] = tested on: SW-620
[38] = tested on: KM-20L2
[39] = tested on: HOP-18
[40] = tested on: CCRF-CEM
[41] = tested on: OVCAR-8
[42] = tested on: UO-31
[43] = tested on: LXFL 529
[44] = tested on: NCI-H23
[45] = tested on: HL-60
[46] = tested on: HT-29
[47] = tested on: RPMI-8226
[48] = tested on: U-251
[49] = tested on: OVCAR-4
[50] = tested on: DMS-114
[51] = tested on: M14
[52] = tested on: SK-MEL-5
[53] = tested on: DLD-1
[54] = tested on: A498
[55] = tested on: CAKI-1
[56] = tested on: NCI-H522
[57] = tested on: K562
[58] = tested on: KM12

NC1CCCCC1.O=C(O)C(CP(=O)(O)O)=C(Cl)Cl
GI50 [1]: > 100 µM (inactive)
GI50 [2]: > 100 µM (inactive)
GI50 [3]: > 100 µM (inactive)
GI50 [4]: > 100 µM (inactive)
GI50 [5]: > 100 µM (inactive)
GI50 [6]: > 100 µM (inactive)
GI50 [7]: > 100 µM (inactive)
GI50 [8]: > 100 µM (inactive)
GI50 [9]: > 100 µM (inactive)
GI50 [10]: > 100 µM (inactive)
GI50 [11]: > 100 µM (inactive)
GI50 [12]: > 100 µM (inactive)
GI50 [13]: > 100 µM (inactive)
GI50 [14]: > 100 µM (inactive)
GI50 [15]: > 100 µM (inactive)
GI50 [16]: > 100 µM (inactive)
GI50 [17]: > 100 µM (inactive)
GI50 [18]: > 100 µM
GI50 [19]: > 100 µM (inactive)
GI50 [20]: > 100 µM (inactive)
GI50 [21]: > 100 µM (inactive)
GI50 [22]: > 100 µM (inactive)
GI50 [23]: > 100 µM (inactive)
GI50 [24]: > 100 µM (inactive)
GI50 [25]: > 100 µM (inactive)
GI50 [26]: > 100 µM (inactive)
GI50 [27]: > 100 µM (inactive)
GI50 [28]: > 100 µM (inactive)
GI50 [29]: > 100 µM (inactive)
GI50 [30]: > 100 µM (inactive)
GI50 [31]: > 100 µM (inactive)
GI50 [32]: > 100 µM (inactive)
GI50 [33]: > 100 µM (inactive)
GI50 [34]: > 100 µM (inactive)
GI50 [35]: > 100 µM (inactive)
GI50 [36]: > 100 µM (inactive)
GI50 [37]: > 100 µM (inactive)
GI50 [38]: > 100 µM (inactive)
GI50 [39]: > 100 µM (inactive)
GI50 [40]: > 100 µM (inactive)
GI50 [41]: > 100 µM (inactive)
GI50 [42]: > 100 µM (inactive)
GI50 [43]: > 100 µM (inactive)
GI50 [44]: > 100 µM (inactive)
GI50 [45]: > 100 µM (inactive)
GI50 [46]: > 100 µM (inactive)
GI50 [47]: > 100 µM (inactive)
GI50 [48]: > 100 µM (inactive)

CSC(C1c2ccccc2N(c2ccc(C)cc2)c2[nH]c(=O)n(C)c(=O)c21)S(=O)(=O)c1ccc(C)cc1 (centres undefined)
GI50 [1]: > 100 µM (inactive)
GI50 [2]: > 100 µM (inactive)
GI50 [4]: > 100 µM (inactive)
GI50 [5]: > 100 µM (inactive)
GI50 [6]: > 100 µM (inactive)
GI50 [7]: > 100 µM (inactive)
GI50 [8]: > 100 µM (inactive)
GI50 [9]: > 100 µM (inactive)
GI50 [10]: > 100 µM (inactive)
GI50 [11]: > 100 µM (inactive)
GI50 [13]: > 100 µM (inactive)
GI50 [49]: 97.7 µM (inactive)
GI50 [14]: > 100 µM (inactive)
GI50 [50]: > 100 µM (inactive)
GI50 [15]: > 100 µM (inactive)
GI50 [16]: > 100 µM (inactive)
GI50 [17]: > 100 µM (inactive)
GI50 [19]: > 100 µM (inactive)
GI50 [51]: > 100 µM (inactive)
GI50 [20]: > 100 µM (inactive)
GI50 [21]: > 100 µM (inactive)
GI50 [22]: > 100 µM (inactive)
GI50 [23]: > 100 µM (inactive)
GI50 [24]: > 100 µM (inactive)
GI50 [25]: > 100 µM (inactive)
GI50 [26]: > 100 µM (inactive)
GI50 [52]: > 100 µM (inactive)
GI50 [27]: > 100 µM (inactive)
GI50 [28]: > 100 µM (inactive)
GI50 [29]: > 100 µM (inactive)
GI50 [30]: > 100 µM (inactive)
GI50 [31]: > 100 µM (inactive)
GI50 [32]: > 100 µM (inactive)
GI50 [34]: > 100 µM (inactive)
GI50 [35]: > 100 µM (inactive)
GI50 [53]: > 100 µM (inactive)
GI50 [36]: > 100 µM (inactive)
GI50 [37]: > 100 µM (inactive)
GI50 [54]: > 100 µM (inactive)
GI50 [55]: > 100 µM (inactive)
GI50 [38]: > 100 µM (inactive)
GI50 [40]: 71.6 µM (inactive)
GI50 [41]: > 100 µM (inactive)
GI50 [42]: > 100 µM (inactive)
GI50 [43]: > 100 µM (inactive)
GI50 [44]: > 100 µM (inactive)
GI50 [45]: 43.5 µM (inactive)
GI50 [56]: 63.8 µM (inactive)
GI50 [46]: > 100 µM (inactive)
GI50 [57]: > 100 µM (inactive)
GI50 [47]: 97.1 µM (inactive)
GI50 [48]: > 100 µM (inactive)

Nc1ccn(CCO)c(=O)n1
GI50 [1]: > 100 µM (inactive)
GI50 [2]: > 100 µM (inactive)
GI50 [3]: > 100 µM (inactive)
GI50 [4]: > 100 µM (inactive)
GI50 [5]: > 100 µM (inactive)
GI50 [6]: > 100 µM (inactive)
GI50 [7]: > 100 µM (inactive)
GI50 [8]: > 100 µM (inactive)
GI50 [9]: > 100 µM (inactive)
GI50 [10]: > 100 µM (inactive)
GI50 [11]: > 100 µM (inactive)
GI50 [12]: > 100 µM (inactive)
GI50 [13]: > 100 µM (inactive)
GI50 [49]: > 100 µM (inactive)
GI50 [14]: > 100 µM (inactive)
GI50 [50]: > 100 µM (inactive)
GI50 [16]: > 100 µM (inactive)
GI50 [17]: > 100 µM (inactive)
GI50 [18]: > 100 µM
GI50 [19]: > 100 µM (inactive)
GI50 [51]: > 100 µM (inactive)
GI50 [20]: > 100 µM (inactive)
GI50 [21]: > 100 µM (inactive)
GI50 [22]: > 100 µM (inactive)
GI50 [23]: > 100 µM (inactive)
GI50 [24]: > 100 µM (inactive)
GI50 [58]: > 100 µM (inactive)
GI50 [26]: > 100 µM (inactive)
GI50 [52]: > 100 µM (inactive)
GI50 [27]: > 100 µM (inactive)
GI50 [28]: > 100 µM (inactive)
GI50 [29]: > 100 µM (inactive)
GI50 [30]: > 100 µM (inactive)
GI50 [32]: > 100 µM (inactive)
GI50 [33]: > 100 µM (inactive)
GI50 [34]: > 100 µM (inactive)
GI50 [35]: > 100 µM (inactive)
GI50 [53]: > 100 µM (inactive)
GI50 [36]: > 100 µM (inactive)
GI50 [37]: > 100 µM (inactive)
GI50 [54]: > 100 µM (inactive)
GI50 [55]: > 100 µM (inactive)
GI50 [38]: > 100 µM (inactive)
GI50 [39]: > 100 µM (inactive)
GI50 [40]: > 100 µM (inactive)
GI50 [41]: > 100 µM (inactive)
GI50 [42]: > 100 µM (inactive)
GI50 [43]: > 100 µM (inactive)
GI50 [45]: > 100 µM (inactive)
GI50 [56]: > 100 µM (inactive)
GI50 [46]: > 100 µM (inactive)
GI50 [57]: > 100 µM (inactive)
GI50 [47]: > 100 µM (inactive)
GI50 [48]: > 100 µM (inactive)
